Test results taken from ChEMBL document CHEMBL6178000, “Gut Microbial Metabolite 4-Ethylphenylsulfate Is Selectively Deleterious and Anticancer to Colon Cancer Cells” (J Med Chem, 2025).
The source made the active and inactive calls. The rule behind the calls is not given here.

Assays:
[1] = tested on: HCT-116; test: Cytotoxicity against human HCT-116 cells assessed as reduction in ATP level incubated for 24 to 72 hrs by CellTiter-Glo assay; assay type: functional, cell-based; settings: dose 0.25-10 mM, time 24-72 hrs
[2] = tested on: HCT-116; test: Induction of cell cycle arrest in human HCT-116 cells assessed as accumulation of cells at S phase at 2.5 mM incubated for 48 hrs by PI staining based flow cytometric analysis (reference value: 10 %); assay type: functional
[3] = tested on: HCT-116; test: Induction of apoptosis in human HCT-116 cells assessed as late apoptotic cells at 10 mM incubated for 48 hrs by Annexin V-FITC/PI staining based flow cytometric analysis (reference value: 2.13 %); assay type: functional
[4] = tested on: HCT-116; test: Induction of cell cycle arrest in human HCT-116 cells assessed as accumulation of cells at G2/M phase at 10 mM incubated for 48 hrs by PI staining based flow cytometric analysis (reference value: 14 %); assay type: functional
[5] = tested on: HCT-116; test: Induction of apoptosis in human HCT-116 cells assessed as increase in apoptotic rate at 2.5 mM incubated for 48 hrs by Annexin V-FITC/PI staining based flow cytometric analysis relative to control; assay type: functional
[6] = tested on: HCT-116; test: Induction of morphological changes in human HCT-116 cells assessed as change in cell shape at 2.5 to 10 mM incubated for 24 to 72 hrs by inverted microscopic analysis; assay type: functional, cell-based; settings: dose 2.5-10 mM, time 24-72 hrs
[7] = tested on: HCT-116; test: Induction of apoptosis in human HCT-116 cells assessed as viable cells at 10 mM incubated for 48 hrs by Annexin V-FITC/PI staining based flow cytometric analysis (reference value: 42.5 %); assay type: functional; settings: HCT-116, 48 h, read-out: Activity
[8] = tested on: HCT-116; test: Induction of cell cycle arrest in human HCT-116 cells assessed as accumulation of cells at S phase at 5 mM incubated for 48 hrs by PI staining based flow cytometric analysis (reference value: 10 %); assay type: functional
[9] = tested on: HCT-116; test: Induction of apoptosis in human HCT-116 cells assessed as late apoptotic cells at 1.25 mM incubated for 48 hrs by Annexin V-FITC/PI staining based flow cytometric analysis (reference value: 2.13 %); assay type: functional
[10] = tested on: HCT-116; test: Induction of apoptosis in human HCT-116 cells assessed as late apoptotic cells at 5 mM incubated for 48 hrs by Annexin V-FITC/PI staining based flow cytometric analysis (reference value: 2.13 %); assay type: functional
[11] = tested on: HCT-116; test: Induction of apoptosis in human HCT-116 cells assessed as viable cells at 5 mM incubated for 48 hrs by Annexin V-FITC/PI staining based flow cytometric analysis (reference value: 42.5 %); assay type: functional; settings: HCT-116, 48 h, read-out: Activity
[12] = tested on: HCT-116; test: Cytotoxicity against human HCT-116 cells assessed as reduction in cell viability at 10 mM incubated for 24 hrs by MTT assay (reference value: 100%); assay type: functional
[13] = tested on: HCT-116; test: Induction of apoptosis in human HCT-116 cells assessed as viable cells at 1.25 mM incubated for 48 hrs by Annexin V-FITC/PI staining based flow cytometric analysis (reference value: 42.5 %); assay type: functional; settings: HCT-116, 48 h, read-out: Activity
[14] = tested on: HCT-116; test: Induction of apoptosis in human HCT-116 cells assessed as increase in apoptotic rate at 5 mM incubated for 48 hrs by Annexin V-FITC/PI staining based flow cytometric analysis relative to control; assay type: functional
[15] = tested on: CCD-841CoN; test: Cytotoxicity against human CCD-841CoN cells at 10 mM incubated for 72 hrs by MTT assay; assay type: toxicity, cell-based; settings: 10000 µM
[16] = tested on: HCT-116; test: Induction of apoptosis in human HCT-116 cells assessed as viable cells at 2.5 mM incubated for 48 hrs by Annexin V-FITC/PI staining based flow cytometric analysis (reference value: 42.5 %); assay type: functional; settings: HCT-116, 48 h, read-out: Activity
[17] = tested on: HCT-116; test: Cytotoxicity against human HCT-116 cells assessed as reduction in cell viability at 10 mM incubated for 48 hrs by MTT assay (reference value: 100%); assay type: functional
[18] = tested on: HCT-116; test: Induction of morphological changes in human HCT-116 cells assessed as blebbing of cells at 2.5 to 10 mM incubated for 24 to 72 hrs by inverted microscopic analysis; assay type: functional, cell-based; settings: dose 2.5-10 mM, time 24-72 hrs
[19] = tested on: HCT-116; test: Induction of cell cycle arrest in human HCT-116 cells assessed as accumulation of cells at S phase at 10 mM incubated for 48 hrs by PI staining based flow cytometric analysis (reference value: 10 %); assay type: functional
[20] = tested on: HCT-116; test: Induction of apoptosis in human HCT-116 cells assessed as early apoptotic cells at 10 mM incubated for 48 hrs by Annexin V-FITC/PI staining based flow cytometric analysis (reference value: 55.2 %); assay type: functional
[21] = tested on: HCT-116; test: Induction of morphological changes in human HCT-116 cells assessed as appearance of disorganized cell layers at 2.5 to 10 mM incubated for 24 to 72 hrs by inverted microscopic analysis; assay type: functional, cell-based; settings: dose 2.5-10 mM, time 24-72 hrs
[22] = tested on: HCT-116; test: Induction of apoptosis in human HCT-116 cells assessed as increase in apoptotic rate at 1.25 mM incubated for 48 hrs by Annexin V-FITC/PI staining based flow cytometric analysis relative to control; assay type: functional
[23] = tested on: HCT-116; test: Induction of morphological changes in human HCT-116 cells assessed as rounding of cells at 2.5 to 10 mM incubated for 24 to 72 hrs by inverted microscopic analysis; assay type: functional, cell-based; settings: dose 2.5-10 mM, time 24-72 hrs
[24] = tested on: HCT-116; test: Induction of morphological changes in human HCT-116 cells assessed as rupture of plasma membrane at 2.5 to 10 mM incubated for 24 to 72 hrs by inverted microscopic analysis; assay type: functional, cell-based; settings: dose 2.5-10 mM, time 24-72 hrs
[25] = tested on: HCT-116; test: Induction of morphological changes in human HCT-116 cells assessed as appearance of freely floating cells at 10 mM incubated for 24 to 72 hrs by inverted microscopic analysis; assay type: functional, cell-based; settings: time 24-72 hrs
[26] = tested on: HCT-116; test: Induction of apoptosis in human HCT-116 cells assessed as increase in apoptotic rate at 10 mM incubated for 48 hrs by Annexin V-FITC/PI staining based flow cytometric analysis relative to control; assay type: functional
[27] = tested on: HCT-116; test: Induction of apoptosis in human HCT-116 cells assessed as necrotic cells at 2.5 mM incubated for 48 hrs by Annexin V-FITC/PI staining based flow cytometric analysis (reference value: 0.16 %); assay type: functional
[28] = tested on: HCT-116; test: Induction of cell cycle arrest in human HCT-116 cells assessed as accumulation of cells at G2/M phase at 1.25 mM incubated for 48 hrs by PI staining based flow cytometric analysis (reference value: 14 %); assay type: functional
[29] = tested on: HCT-116; test: Induction of apoptosis in human HCT-116 cells assessed as increase in Bax/Bcl2 ratio incubated for 48 hrs by Western blotting analysis; assay type: functional, cell-based; settings: dose 2.5-5 mM
[30] = tested on: HCT-116; test: Induction of cell cycle arrest in human HCT-116 cells assessed as accumulation of cells at G0/G1 phase at 2.5 mM incubated for 48 hrs by PI staining based flow cytometric analysis (reference value: 74.6 %); assay type: functional
[31] = tested on: HCT-116; test: Induction of cell cycle arrest in human HCT-116 cells assessed as accumulation of cells at G0/G1 phase at 10 mM incubated for 48 hrs by PI staining based flow cytometric analysis (reference value: 74.6 %); assay type: functional
[32] = tested on: HCT-116; test: Induction of morphological changes in human HCT-116 cells assessed as appearance of lobules at 2.5 to 10 mM incubated for 24 to 72 hrs by inverted microscopic analysis; assay type: functional, cell-based; settings: dose 2.5-10 mM, time 24-72 hrs
[33] = tested on: HCT-116; test: Induction of apoptosis in human HCT-116 cells assessed as necrotic cells at 10 mM incubated for 48 hrs by Annexin V-FITC/PI staining based flow cytometric analysis (reference value: 0.16 %); assay type: functional
[34] = tested on: CCD-841CoN; test: Cytotoxicity against human CCD-841CoN cells at 0.25 to 10 mM incubated for 24 to 48 hrs by MTT assay; assay type: toxicity, cell-based; settings: 10000 µM, dose lower 0.25 mM, time lower 24 hrs, dose upper 10 mM, time upper 48 hrs
[35] = tested on: HCT-116; test: Induction of cell cycle arrest in human HCT-116 cells assessed as accumulation of cells at G0/G1 phase at 1.25 mM incubated for 48 hrs by PI staining based flow cytometric analysis (reference value: 74.6 %); assay type: functional
[36] = tested on: HCT-116; test: Induction of apoptosis in human HCT-116 cells assessed as early apoptotic cells at 5 mM incubated for 48 hrs by Annexin V-FITC/PI staining based flow cytometric analysis (reference value: 55.2 %); assay type: functional
[37] = tested on: HCT-116; test: Induction of cell cycle arrest in human HCT-116 cells assessed as accumulation of cells at G0/G1 phase at 5 mM incubated for 48 hrs by PI staining based flow cytometric analysis (reference value: 74.6 %); assay type: functional
[38] = tested on: HCT-116; test: Induction of apoptosis in human HCT-116 cells assessed as early apoptotic cells at 1.25 mM incubated for 48 hrs by Annexin V-FITC/PI staining based flow cytometric analysis (reference value: 55.2 %); assay type: functional
[39] = tested on: HCT-116; test: Induction of cell cycle arrest in human HCT-116 cells assessed as accumulation of cells at G2/M phase at 2.5 mM incubated for 48 hrs by PI staining based flow cytometric analysis (reference value: 14 %); assay type: functional
[40] = tested on: HCT-116; test: Cytotoxicity against human HCT-116 cells assessed as reduction in cell viability at 10 mM incubated for 72 hrs by MTT assay (reference value: 100%); assay type: functional
[41] = tested on: HCT-116; test: Induction of apoptosis in human HCT-116 cells assessed as necrotic cells at 1.25 mM incubated for 48 hrs by Annexin V-FITC/PI staining based flow cytometric analysis (reference value: 0.16 %); assay type: functional
[42] = tested on: HCT-116; test: Inhibition of colony formation in human HCT-116 cells at 0.25 to 10 mM incubated for 10 days by crystal violet staining based analysis; assay type: functional, cell-based; settings: dose 0.25-10 mM, time 10.0 day
[43] = tested on: HCT-116; test: Induction of apoptosis in human HCT-116 cells assessed as necrotic cells at 5 mM incubated for 48 hrs by Annexin V-FITC/PI staining based flow cytometric analysis (reference value: 0.16 %); assay type: functional
[44] = tested on: HCT-116; test: Cytotoxicity against human HCT-116 cells assessed as reduction in ATP level at 0.25 to 10 mM by CellTiter-Glo assay; assay type: functional, cell-based; settings: dose 0.25-10 mM, time 24-72 hrs
[45] = tested on: HCT-116; test: Induction of apoptosis in human HCT-116 cells assessed as early apoptotic cells at 2.5 mM incubated for 48 hrs by Annexin V-FITC/PI staining based flow cytometric analysis (reference value: 55.2 %); assay type: functional
[46] = tested on: HCT-116; test: Induction of cell cycle arrest in human HCT-116 cells assessed as accumulation of cells at S phase at 1.25 mM incubated for 48 hrs by PI staining based flow cytometric analysis (reference value: 10 %); assay type: functional
[47] = tested on: HCT-116; test: Induction of apoptosis in human HCT-116 cells assessed as late apoptotic cells at 2.5 mM incubated for 48 hrs by Annexin V-FITC/PI staining based flow cytometric analysis (reference value: 2.13 %); assay type: functional
[48] = tested on: HCT-116; test: Induction of ROS generation in human HCT-116 cells assessed as increase in superoxide anion at 1.25 to 10 mM incubated for 48 hrs by DHE fluorescence based analysis; assay type: functional, cell-based; settings: dose 1.25-10 mM
[49] = tested on: HCT-116; test: Induction of cell cycle arrest in human HCT-116 cells assessed as accumulation of cells at G2/M phase at 5 mM incubated for 48 hrs by PI staining based flow cytometric analysis (reference value: 14 %); assay type: functional

In the case of `CCc1ccc(OS(=O)(=O)O)cc1`, the Activity [1] is reported as “Dose-dependent-effect”, the Activity [2] is reported as 15.4% and the Activity [3] is reported as 50.8%. The Activity [4] was 27.2%, the Activity [5] was 73% and the Activity [6] was “Active”. It also gave a viability at 10000 µM [7] of 0.84%, an Activity [8] of 9.8% and an Activity [9] of 3.78%. The Activity [10] was 19.8%, the viability at 5000 µM [11] was 8.22% and the Activity [12] was 55%. For the same compound, the viability at 1250 µM [13] was 27.6%, the Activity [14] was 81% and the Activity [15] was “Non-toxic”. The viability at 2500 µM [16] was 22.5%, the Activity [17] was 24% and the Activity [18] was “Active”. For the same compound, the Activity [19] was 13.5%, the Activity [20] was 48.3% and the Activity [21] was “Active”. For the same compound, the Activity [22] was 52%, the Activity [23] was “Active” and the Activity [24] was “Active”. For the same compound, the Activity [25] was “Active”, the Activity [26] was 97% and the Activity [27] was 0.065%. The Activity [28] was 19.7%, the Activity [29] was “Dose-dependent-effect” and the Activity [30] was 64%. The Activity [31] was 55.4%, the Activity [32] was “Active” and the Activity [33] was 0.067%. For the same compound, the Activity [34] was “Non-toxic”, the Activity [35] was 70.8% and the Activity [36] was 71.9%. The Activity [37] was 59.6%, the Activity [38] was 68.6% and the Activity [39] was 19.7%. The Activity [40] was 7%, the Activity [41] was 0.048% and the inhibition [42] was “Active”. For the same compound, the Activity [43] was 0.076%, the Activity [44] was “Time-dependent-effect” and the Activity [45] was 70.1%. For the same compound, the Activity [46] was 9%, the Activity [47] was 7.36% and the Activity [48] was “Active”. For the same compound, the Activity [49] was 29.8%.
